This note sets out measurements from PMC10238420, “Altered Signaling and Desensitization Responses in PTH1R Mutants Associated with Eiken Syndrome” (Communications Biology, 2023).

Assay [1] concerns the target T1, PTH1R-E35K (Homo sapiens, UniProt Q03431, E35K). As to the kind of experiment: cAMP time course with ligand and after ligand washout (duration), Gs22a cells. The format is cell-based. The settings on record: 10 nM, 30 min pretreatment.
Method: (§3) Data are means (±SEM) of five (a), four (b, c, e) or three (d) separate experiments.
(§4) Fig. 7 Effects of Eiken mutation on duration of cAMP signaling and desensitization to ligand re-challenge. a Assays were performed in Gs22a cells transiently transfected to express PTH1R-WT or a mutant PTH1R. a Duration of initial cAMP signaling response. […] Response to Ligand rechallenge. After the washout-periods shown in panel a, the cells were rechallenged with the same ligand (1.0 nM) for 60 min and cAMP accumulation was assessed. […] P values indicate comparison by Student’s t test to pre-vehicle treatment: Data are means ± SEM from four separate experiments each in duplicate (b) or quadruplicate (a).
(§5) Basal and ligand-stimulated cAMP signaling was assessed via the glosensor cAMP reporter in Gs22a cells transiently transfected to express either the WT or a mutant hPTH1R in white 96-well plates at room temperature. […] The plate was then placed into a PerkinElmer Envision plate reader and luminescence, as counts per second (cps), was measured at 2-min intervals for 15 min, during which time luciferin uptake occurred and luminescence reached a near steady-state baseline level. The plate was then removed from the plate reader, CIDB alone (vehicle) or containing a test ligand at varying concentrations was added, and luminescence was again measured at 2 min intervals for an additional 30–60 min. […]
The target in assay [2] is T2, PTH1R-Y134S (Homo sapiens, UniProt Q03431, Y134S). The description is as above. The settings on record: 10 nM, 30 min pretreatment. The format is cell-based.
Method: as §3, §4, §5
Assay [3] deals with PTH1R-R485X. As for the experimental part:
(§1) Images are representative of three independent experiments.
Data are representative of three independent experiments (a-d); or means ± SEM of three or four independent experiments (e, f). Bar heights in graphs of panels b and d indicate the means ± SEM of counts from the five cells shown by the individual data points. Scale bars in a and c indicate 10 μm.
Ligand-induced recruitment of β-arrestin2^YFP was assessed in GBR-24 cells, which are HEK293/glosensor (Gs22A)-derived cells stably expressing β-arrestin2^YFP [42]. The cells in six-well plates were transiently transfected with plasmid DNA encoding PTH1R-WT or mutant derivative, and 24 hours later seeded onto glass coverslips in 6-well plates. […] In some experiments, the cells were imaged by confocal microscopy using a Leica DMi8 inverted Microscope at ×400 magnification, and the images were processed using Leica Application Suite X (LAS X) software. Regions of interest were digitally expanded 3-5X to improve views.
Quantification of β-arrestin2^YFP clusters was performed using ImageJ software (vers. 1.53)[67]. The color images were converted to 8 bit and then 16 bit gray-scale, and the threshold was adjusted on a cell-by-cell basis to show distinct particles (interpreted as clusters of β-arrestin2^YFP in intracellular vesicles); threshold values ranged from ~ 20-60. The free-hand tool was used to define the area analyzed for each cell, and the Analyze Particle tool was used to obtain the number of particles, the total area, and the mean gray scale (intensity) of each particle for each cell.

Assay [4] has as its target T1, PTH1R-E35K. As to the kind of experiment: Fluorescence microscopy of ligand internalization and β-arrestin2YFP recruitment, GBR-24 cells, ImageJ. The format is cell-based.
Excerpt: as §1
(§2) Scale bars in a and c indicate 10 μm.

Assay [5] concerns the target T2, PTH1R-Y134S. The assay is described as above. The format is cell-based.
Excerpt: as §1, §2

For assay [6], the target named is T1, PTH1R-E35K. In words: BRET β-arrestin2 recruitment to plasma membrane (rGFP-CAAX), HEK293. The format is cell-based.
Excerpt: as §1, §2
On the technique in general: Bioluminescence resonance energy transfer reports proximity on the nanometre scale.

Assay [7] concerns the target T1, PTH1R-E35K. In words: BRET β-arrestin2 recruitment to early endosomes (rGFP-FYVE), HEK293. The format is cell-based.
Excerpt: as §1, §2

Assay [8] deals with T3, PTH1R-WT (Homo sapiens, UniProt Q03431). In words: Fluorescence microscopy of ligand internalization and β-arrestin2YFP recruitment, GBR-24 cells, ImageJ. The format is cell-based. The settings on record: 10 nM, 30 min.
Excerpt: as §1, §2

Assay [9] addresses T4, PTH1R-H223R (Homo sapiens, UniProt Q03431, H223R). The assay is described as above. The format is cell-based. The note with it: 10 nM, 30 min.
Excerpt: as §1

For assay [10], the target named is T4, PTH1R-H223R. As to the kind of experiment: Inverse agonist effect on basal cAMP, Gs22a cells. The format is cell-based. The note with it: 100 nM. The source says:
Minutes Minutes [PTHrP(7-36)] Log M
+Veh. +SW +Veh. +SW +Veh.+SW +Veh. +SW +SW
DMSO Dyngo+Veh. DMSO Dyngo+Veh. DMSO Dyngo+Veh. DMSO Dyngo+Veh. DMSO DMSO Dyngo+Veh.Dyngo+SW
Suppl ement al Fi gure 9.
Dat a f or PT H1R-H223R and
DMSO+PTHrP(7-36) Dyngo+Veh. Dyngo+PTHrP(7-36) DMSO+Veh. DMSO+SW106Dyngo+Veh. […] DMSO+SW106Dyngo+Veh. Dyngo+SW106 PTH1R-R485X DMSO+Veh. DMSO+SW106Dyngo+Veh. Dyngo+SW106 ##* DMSO+Veh. DMSO+SW106Dyngo+Veh. Dyngo+SW106 ##*** DMSO+Veh. DMSO+SW106Dyngo+Veh. Dyngo+SW106 PTH1R-H223R)

The test system of assay [11] is PTH1R-R485X. The settings on record: 100 nM.
Method: Data are means ± SEM of three separate experiments, with triplicate wells in each.
Basal and ligand-stimulated cAMP signaling was assessed via the glosensor cAMP reporter in Gs22a cells transiently transfected to express either the WT or a mutant hPTH1R in white 96-well plates at room temperature. […] The plate was then placed into a PerkinElmer Envision plate reader and luminescence, as counts per second (cps), was measured at 2-min intervals for 15 min, during which time luciferin uptake occurred and luminescence reached a near steady-state baseline level. The plate was then removed from the plate reader, CIDB alone (vehicle) or containing a test ligand at varying concentrations was added, and luminescence was again measured at 2 min intervals for an additional 30–60 min.
For assay [12], the system named is PTH1R-R485X. The settings on record: PTH(1-34) 1 nM.
Method: was added and moni t or i ng c ont i nued f or an addi t i onal 30 mi nut es .
shown in panel a. c) Cel l s wer e pr et r eat ed f or 15 mi nut es wi t h ei t her DMSO or Dy ngo4a ( 30 uM) , t hen
mi nut es ( agoni s t-was hout phas e) . T he AUCs of t he 90-mi nut e agoni s t-was hout r es pons es f or eac h
wi t h v ehi c l e dur i ng t he agoni s t-was hout phas e ( 100%) .
For assay [13], the target named is T1, PTH1R-E35K. In words: Total binding of 125I-PTHrP(1-36), intact Gs22a cells.
Method: (§6) Binding was assessed on confluent monolayers of transiently transfected intact Gs22a cells in 96-well plates. Binding reactions contained HB and 20,000–30,000 cpm/well of radioligand. […] The mixtures were then removed and the cells were rinsed twice with HB and lysed with 5 N NaOH and the lysates were counted for gamma irradiation in a gamma counter. […] After incubation for 2 h at 4 °C, the mixtures were removed, the cells were rinsed twice with HB, lysed with 5N NaOH, and the lysates were counted for gamma irradiation.
Assay [14] deals with T2, PTH1R-Y134S. The description is as above.
Method: as §6
Assay [15] concerns the target T4, PTH1R-H223R. The description is as above.
Method: as §6
Assay [16] relates to PTH1R-R485X. The source holds these as a separate data set.
Method: as §6
Assay [17] deals with T3, PTH1R-WT. In words: cAMP time course with ligand and after ligand washout (duration), Gs22a cells. The format is cell-based. The settings on record: 1 nM, 90 min washout; all PTH1R variants.
Method: as §3, §4, §5
Assay [18] relates to PTH1R-R485X. The note with it: 1 nM; vs vehicle-pre-treated cells.
Method: as §4
The cells were then rinsed twice with CIDB and incubated in CIDB for 90 min (washout phase); then rinsed again and incubated in CIDB/luciferin for an additional 10 min, and then treated with vehicle or rechallenged with the same ligand (1.0 nM) and incubations continued for a final 60-min (ligand re-challenge phase); luminescence was monitored at 2 min-intervals during each phase of incubation.

In the case of “AVSEIQL L H D KGKSIQD L R R R FFL H H L IAEIH TAEI.N H2 [Ile^5-PTHrP(1-36)]”, the “duration of cAMP response vs His5-PTHrP(1-36), in words” value on PTH1R-E35K [1] and on PTH1R-Y134S [2] was “more sustained cAMP signaling response” in each case. For the same substance, the “co-clustering of β-arrestin2YFP, in words” value is listed as “not” with PTH1R-R485X [3] (10 nM unlabeled peptide), “r obust co-clust ering” on PTH1R-E35K [4] (10 nM unlabeled peptide) and “r obust co-clust ering” at PTH1R-Y134S [5] (10 nM unlabeled peptide). The “potency ratio vs PTHrP(1-36)” value at PTH1R-E35K [6] and on PTH1R-E35K [7] was about 10 fold throughout. In addition, the “potency vs PTH(1-34), in words” value on PTH1R-E35K [6] and at PTH1R-E35K [7] was “as potent as PTH(1-34)” each time.
“AVSEIQLnLHNLGrKH L ASVERnLQWLRKKLQDVHNF.NH2 [PTH(1-34)^TMR, tetramethyl rhodamine attached to the epsilon amino function of lysine-13]”: the “co-localization of ligand clusters with β-arrestin2YFP, in words” value with PTH1R-R485X [3] (10 nM, 30 min) is given as “did not co-localize in clusters”; on PTH1R-E35K [4] (10 nM, 30 min), “co-localized with β-arrestin2^YFP”; at PTH1R-WT [8], “co-localized with β-arrestin2^YFP”; at PTH1R-Y134S [5] (10 nM, 30 min) it was “co-localized with β-arrestin2^YFP”; at PTH1R-H223R [9], “co-localized with β-arrestin2^YFP”.
As to “LLHDLdWKSIQD L R R R FWL H H L IAEIH TAEY.N H 2 [dTrp^12-PTHrP(7-36), [Leu^11,dTrp^12,Trp^23,Tyr^36]-PTHrP(7–36)NH2]”, the “effect on basal cAMP, in words” value at PTH1R-H223R [10] and with PTH1R-R485X [11] was “rapid decreases in the intracellular cAMP levels” each time. For the same substance, the “inhibition of subsequently added PTH(1-34) cAMP signaling, in words” value with PTH1R-R485X [12] is on record as “dose-dependent inhibition of cAMP signaling”.
With “AVSEH QL L H D KGKSIQD L R R R FFL H H L IAEIH TAEY.N H 2 [125I-PTHrP(1-36)]”, the “reduction of total binding vs PTH1R-WT” value on PTH1R-E35K [13] and on PTH1R-Y134S [14] was ~ 50% each time. Besides, the “total binding vs PTH1R-WT, in words” value at PTH1R-H223R [15] and in the assay with PTH1R-R485X [16] was “comparable to that on PTH1R-WT” throughout.
For the substance “AVAEIQL MH QR AKWIQD AR R R AFL H KL IAEIH TAEI.OH [LA-PTH]”, the “residual cAMP signaling at end of washout, in words” value at PTH1R-WT [17] is reported as “elevated for all PTH1R variants”. Besides, in the assay with PTH1R-R485X [18], the “response upon ligand rechallenge, in words” value is reported as “significantly blunted”.
